#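 Exposure lasted 48 hours, with cells grown in 96-well plates and compounds tested at five concentrations. GI50 is the concentration that inhibits growth by half. TGI: total growth inhibition.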
# Tests used:
# Assay in all cases: DTP human tumour cell line panel, 48 h
# 786-0 renal = test system: 786-0 renal
# SNB-19 CNS = test system: SNB-19 CNS
# A549 NSCLC = test system: A549 NSCLC
# NCI-H460 lung = test system: NCI-H460 lung
# RPMI-8226 leukemia = test system: RPMI-8226 leukemia
# LOX IMVI melanoma = test system: LOX IMVI melanoma
# HCT-15 colon = test system: HCT-15 colon
# SF-295 CNS = test system: SF-295 CNS
# HL-60(TB) leukemia = test system: HL-60(TB) leukemia
# COLO 205 colon = test system: COLO 205 colon
SMILES,GI50 (786-0 renal),TGI (786-0 renal),GI50 (SNB-19 CNS),TGI (SNB-19 CNS),GI50 (A549 NSCLC),TGI (A549 NSCLC),GI50 (NCI-H460 lung),TGI (NCI-H460 lung),GI50 (RPMI-8226 leukemia),TGI (RPMI-8226 leukemia),GI50 (LOX IMVI melanoma),TGI (LOX IMVI melanoma),GI50 (HCT-15 colon),TGI (HCT-15 colon),GI50 (SF-295 CNS),TGI (SF-295 CNS),GI50 (HL-60(TB) leukemia),TGI (HL-60(TB) leukemia),GI50 (COLO 205 colon),TGI (COLO 205 colon)
N[C@@H]1CCCC[C@@H]1N.O=P([O-])([O-])CN(CP(=O)([O-])[O-])CP(=O)([O-])[O-].[Pt+2],> 100 µM,> 100 µM,> 100 µM,> 100 µM,> 100 µM,> 100 µM,> 100 µM,> 100 µM,> 100 µM,> 100 µM,> 100 µM,> 100 µM,> 100 µM,> 100 µM,> 100 µM,> 100 µM,> 100 µM,> 100 µM,> 100 µM,> 100 µM
C=[CH][Sn]([CH]=C)([O]c1cccc2cccnc12)[O]c1cccc2cccnc12,3.31 µM,9.29 µM,8.36 µM,23.8 µM,3.37 µM,13.9 µM,3.11 µM,9.01 µM,0.877 µM,4.71 µM,1.46 µM,4.86 µM,2.36 µM,6.4 µM,5.27 µM,19.4 µM,0.619 µM,2.91 µM,1.79 µM,3.19 µM
CC(=O)Oc1ccc(/C=N/NC(N)=S)nc1,3.53 µM,16.1 µM,8.77 µM,> 100 µM,29.5 µM,> 100 µM,9.36 µM,> 100 µM,9.43 µM,> 100 µM,3.54 µM,> 100 µM,22.5 µM,> 100 µM,6.42 µM,42.6 µM,1.74 µM,8.44 µM,31 µM,> 100 µM
Nc1ccc(S(=O)(=O)Nc2cnc3c(Cl)cccc3n2)cc1,–,> 750 µM,> 77.5 µM,620 µM,–,> 750 µM,> 77.9 µM,> 750 µM,> 95.1 µM,> 705 µM,> 20.2 µM,> 736 µM,43.5 µM,> 562 µM,–,737 µM,> 75 µM,637 µM,> 74.3 µM,193 µM
O=C(c1ccc(Cl)cc1)C1OC12C(=O)Nc1ccccc12 (configuration not stated),–,26.9 µM,–,86.7 µM,–,58.6 µM,–,47.1 µM,–,10.2 µM,–,4.67 µM,–,11.2 µM,–,33.7 µM,–,1.58 µM,–,8.53 µM
CCOc1ccc(C(CN2CCOCC2)C(C)=O)cc1OC (configuration not stated),–,15.7 µM,–,32 µM,–,51.7 µM,–,32.5 µM,–,83.5 µM,–,31.1 µM,–,22.5 µM,–,> 100 µM,–,17 µM,–,19.6 µM
COc1cccc(NC(=O)C(=O)C(C(C)=O)c2nc3ccc(Cl)cc3[nH]c2=O)c1 (configuration not stated),–,> 100 µM,–,> 100 µM,–,> 100 µM,–,> 100 µM,–,> 100 µM,–,> 100 µM,–,> 100 µM,–,> 100 µM,–,> 100 µM,–,> 100 µM
CC1CCC2N(C1)CC1C3(O)CC45OC6(O)C(O)CCC4(C)C6CCC5C3(O)CC(O)C1(O)C2(C)O (configuration not stated),–,> 100 µM,–,> 100 µM,–,> 100 µM,–,> 100 µM,–,> 100 µM,–,> 100 µM,–,> 100 µM,–,> 100 µM,–,> 100 µM,–,> 100 µM
Cc1c(C(=O)CSc2nc3ccccc3[nH]2)c(=O)n(-c2ccccc2)n1C,–,> 100 µM,–,> 100 µM,–,> 100 µM,–,> 100 µM,–,> 100 µM,–,> 100 µM,–,> 100 µM,–,> 100 µM,–,> 100 µM,–,> 100 µM
CN(C=O)/C=C/c1cc(O)ccc1O,–,33.7 µM,–,> 100 µM,–,> 100 µM,–,> 74.7 µM,–,75.6 µM,–,45 µM,–,65.8 µM,–,47.7 µM,–,40.8 µM,–,45.4 µM
COc1cccc(/C=C/C(=O)c2cc3c(N)c(C(=O)Nc4cccc5ccccc45)sc3nc2C)c1,0.851 µM,1.85 µM,1.69 µM,> 50 µM,1.46 µM,> 50 µM,1.22 µM,3.45 µM,0.461 µM,2.73 µM,0.826 µM,1.69 µM,0.624 µM,1.86 µM,1.67 µM,23.1 µM,1.06 µM,2.61 µM,1.71 µM,34.2 µM
COc1ccc(CCN=C2CCC(C(=O)NCCc3ccc(OC)c(OC)c3)N2)cc1OC (configuration not stated),–,> 100 µM,–,> 100 µM,–,> 100 µM,–,> 100 µM,–,> 100 µM,–,> 100 µM,–,> 100 µM,–,> 100 µM,–,> 100 µM,–,> 100 µM
COc1ccc(CCc2cc(OC)c(OC)c(OC)c2)cc1,–,69.1 µM,–,> 100 µM,–,88.8 µM,–,9.82 µM,–,17.1 µM,–,39.5 µM,–,10.2 µM,–,1.46 µM,–,0.296 µM,–,0.189 µM
FC1OC2OC1C(OCc1ccccc1)C(OCc1ccccc1)C2OCc1ccccc1 (configuration not stated),–,> 100 µM,–,> 100 µM,–,> 100 µM,–,> 100 µM,–,61.2 µM,–,> 100 µM,–,> 100 µM,–,> 100 µM,–,62.9 µM,–,> 100 µM
CN1CCc2c1nc(-c1ccc([N+](=O)[O-])cc1)c1c2N(C)CC1,–,> 100 µM,–,> 100 µM,–,> 100 µM,–,> 100 µM,–,> 100 µM,–,> 100 µM,–,> 100 µM,–,> 100 µM,–,> 100 µM,–,> 100 µM
CNC(=O)CN(CC(N)=O)C(N)=O,–,> 100 µM,–,> 100 µM,–,> 100 µM,–,> 100 µM,–,> 100 µM,–,> 100 µM,–,> 100 µM,–,> 100 µM,–,> 100 µM,–,> 100 µM
O=C1C=CC2(C=C1)C[C@H](NC(=O)C(F)(F)F)C(=O)O2,–,> 100 µM,–,> 100 µM,–,> 100 µM,–,> 100 µM,–,> 100 µM,–,51 µM,–,> 100 µM,–,> 100 µM,–,36.1 µM,–,> 100 µM
